From PubChem BioAssay (NCI)
Where “and” joins values, the source holds several entries; their conditions need not be identical. Equal values may be shown once.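 Test compounds were applied to cells in 96-well plates for 48 hours at 5 doses. GI50 = concentration required for 50% inhibition of growth. TGI is the concentration that stops growth completely.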

Legend:
Test in all cases: NCI tumour cell line growth inhibition, 48 h
M19-MEL melanoma = tested on: M19-MEL melanoma
HOP-18 NSCLC = tested on: HOP-18 NSCLC
SNB-19 CNS = tested on: SNB-19 CNS
U251 CNS = tested on: U251 CNS
A549 NSCLC = tested on: A549 NSCLC
NCI-H522 lung = tested on: NCI-H522 lung
P388 leukemia = tested on: P388 leukemia
SNB-78 CNS = tested on: SNB-78 CNS
MALME-3M melanoma = tested on: MALME-3M melanoma
NCI-H460 lung = tested on: NCI-H460 lung
DLD-1 colon = tested on: DLD-1 colon
NCI-H23 lung = tested on: NCI-H23 lung
TK-10 renal = tested on: TK-10 renal
DU-145 prostate = tested on: DU-145 prostate
MDA-MB-231 breast = tested on: MDA-MB-231 breast

`CC1[C@@]2(O[C@@H]3C=C4C5CCC6Cc7nc8c(nc7C[C@@]6(C)C5C[C@H](O)[C@@]4(C)[C@]13O)CC1CCc3c(cc4c5c3C(O)C[C@H]5[C@@H](C)C3(O4)OC(C)(C)CC3O)[C@]1(C)C8)O[C@@](C)(CO)C[C@@H]2O` (some centres not stated) was tested, and the TGI (M19-MEL melanoma) was > 3.72 µM, the TGI (HOP-18 NSCLC) was > 3.72 µM and the TGI (SNB-19 CNS) was > 3.72 µM. For the same compound, the TGI (U251 CNS) was 0.586 µM, the TGI (A549 NSCLC) was > 3.72 µM and the TGI (NCI-H522 lung) was 2.39 µM. For the same compound, the TGI (P388 leukemia) was > 3.72 µM, the TGI (SNB-78 CNS) was 2.33 µM and the TGI (MALME-3M melanoma) was 2.22 µM. The TGI (NCI-H460 lung) was > 3.72 µM and the TGI (DLD-1 colon) was > 3.72 µM.
For `CCC1(O)C(=O)OCc2c1cc1n(c2=O)Cc2cc3cc4c(cc3nc2-1)OCO4` (configuration not stated), the TGI (M19-MEL melanoma) was 0.205 µM, the TGI (HOP-18 NSCLC) was 0.824 µM and the TGI (SNB-19 CNS) was 2.17 µM. The TGI (U251 CNS) was 0.183 µM, the TGI (A549 NSCLC) was 0.259 µM and the TGI (NCI-H23 lung) was < 0.0109 µM. The TGI (NCI-H522 lung) was 0.383 µM, the TGI (P388 leukemia) was 0.117 µM and the TGI (SNB-78 CNS) was > 57.8 µM. For the same compound, the TGI (MALME-3M melanoma) was 0.807 µM, the TGI (TK-10 renal) was 37.3 µM and the TGI (DU-145 prostate) was > 100 µM. The TGI (NCI-H460 lung) was 0.0156 µM and the TGI (DLD-1 colon) was > 60.3 µM.
`O=[N+]([O-])c1ccc(C[P+]2(c3ccccc3)CCCCC2)cc1` (tested in a mixture with another compound) was tested, and the TGI (HOP-18 NSCLC) was 65.8 µM, the TGI (SNB-19 CNS) was > 100 µM and the TGI (U251 CNS) was > 100 µM. The TGI (A549 NSCLC) was > 100 µM, the TGI (NCI-H23 lung) was > 100 µM and the TGI (MALME-3M melanoma) was > 100 µM. The TGI (TK-10 renal) was > 100 µM, the TGI (NCI-H460 lung) was > 100 µM and the TGI (DLD-1 colon) was > 100 µM.
In the case of `COc1ccc(C2CC(c3sc(Nc4ccc(C)cc4)nc3C)=NN2)cc1` (configuration not stated), the TGI (M19-MEL melanoma) is reported as > 59 µM, the TGI (HOP-18 NSCLC) is reported as 35.4 µM and the TGI (SNB-19 CNS) is reported as 33.8 µM. The TGI (U251 CNS) was 28.4 µM, the TGI (A549 NSCLC) was 33 µM and the TGI (NCI-H23 lung) was 30.7 µM. The TGI (NCI-H522 lung) was 31.8 µM, the TGI (P388 leukemia) was 20.3 µM and the TGI (SNB-78 CNS) was 52 µM. It also gave a TGI (NCI-H460 lung) of 30.3 µM and a TGI (DLD-1 colon) of 35.7 µM.
`COc1ccc2[nH]c3ccc4cc[n+](CCN5CCC(C6CCN(CC[n+]7ccc8ccc9[nH]c%10ccc(OC)cc%10c9c8c7)CC6)CC5)cc4c3c2c1` was tested, and the TGI (M19-MEL melanoma) was 16.1 µM, the TGI (HOP-18 NSCLC) was 15.1 µM and the GI50 (SNB-19 CNS) was > 50 µM. For the same compound, the TGI (SNB-19 CNS) was > 70.9 µM, the TGI (MDA-MB-231 breast) was 50 µM and the GI50 (U251 CNS) was > 50 µM. For the same compound, the TGI (U251 CNS) was > 52.3 µM, the GI50 (A549 NSCLC) was 0.747 µM and the TGI (A549 NSCLC) was 50 µM and > 62.2 µM. The GI50 (NCI-H23 lung) was 4.46 µM, the TGI (NCI-H23 lung) was > 100 µM and the GI50 (NCI-H522 lung) was > 50 µM. For the same compound, the TGI (NCI-H522 lung) was > 50 µM and 5.27 µM, the TGI (P388 leukemia) was > 100 µM and the TGI (SNB-78 CNS) was 66.4 µM. It also gave a TGI (MALME-3M melanoma) of 50 µM, a TGI (TK-10 renal) of 27.2 µM and a TGI (DU-145 prostate) of 50 µM. The TGI (DLD-1 colon) was > 100 µM.
With `Cc1ccc(C(=O)Nc2ccc(S(=O)(=O)O)c3cc(S(=O)(=O)O)cc(S(=O)(=O)O)c23)cc1NC(=O)c1cccc(NC(=O)Nc2cccc(C(=O)Nc3cc(C(=O)Nc4ccc(S(=O)(=O)O)c5cc(S(=O)(=O)O)cc(S(=O)(=O)O)c45)ccc3C)c2)c1` the TGI (M19-MEL melanoma) was > 100 µM, the TGI (HOP-18 NSCLC) was > 93.3 µM and the TGI (SNB-19 CNS) was > 100 µM. For the same compound, the TGI (MDA-MB-231 breast) was > 100 µM, the TGI (U251 CNS) was > 100 µM and the TGI (A549 NSCLC) was > 100 µM. The TGI (NCI-H23 lung) was > 100 µM, the TGI (NCI-H522 lung) was > 100 µM and the TGI (SNB-78 CNS) was > 100 µM. The TGI (MALME-3M melanoma) was > 100 µM, the TGI (TK-10 renal) was > 89.7 µM and the TGI (DU-145 prostate) was > 100 µM. For the same compound, the TGI (NCI-H460 lung) was > 100 µM and the TGI (DLD-1 colon) was > 100 µM.
For `COc1cc(/C=C/c2ccc(OC)c(OC)c2)oc(=O)c1`, the TGI (M19-MEL melanoma) was > 250 µM, the TGI (HOP-18 NSCLC) was > 250 µM and the TGI (SNB-19 CNS) was > 250 µM. For the same compound, the TGI (U251 CNS) was > 250 µM, the TGI (A549 NSCLC) was > 250 µM and the TGI (NCI-H23 lung) was > 250 µM. For the same compound, the TGI (NCI-H522 lung) was > 250 µM, the TGI (P388 leukemia) was > 250 µM and the TGI (SNB-78 CNS) was > 250 µM. For the same compound, the TGI (MALME-3M melanoma) was > 250 µM, the TGI (NCI-H460 lung) was > 250 µM and the TGI (DLD-1 colon) was > 250 µM.
With `CN(C)CCNC(=O)c1cccc2c1C(=O)c1ccccc1C2=O` the TGI (M19-MEL melanoma) was 41.7 µM, the TGI (HOP-18 NSCLC) was > 100 µM and the TGI (SNB-19 CNS) was > 100 µM. The TGI (U251 CNS) was > 100 µM, the TGI (A549 NSCLC) was > 100 µM and the TGI (NCI-H23 lung) was 50 µM. The TGI (NCI-H522 lung) was 69.1 µM, the TGI (P388 leukemia) was 43.9 µM and the TGI (SNB-78 CNS) was > 86.6 µM. For the same compound, the TGI (MALME-3M melanoma) was 28.1 µM, the TGI (NCI-H460 lung) was 85.8 µM and the TGI (DLD-1 colon) was > 77.6 µM.
`CN(C)N1C(=O)C(=O)N(c2cccc3ccccc23)C1=O` was tested, and the TGI (SNB-19 CNS) was > 10 µM, the TGI (MDA-MB-231 breast) was > 10 µM and the TGI (U251 CNS) was > 10 µM. The TGI (A549 NSCLC) was > 10 µM, the TGI (NCI-H23 lung) was > 10 µM and the TGI (NCI-H522 lung) was > 10 µM. The TGI (MALME-3M melanoma) was > 10 µM, the TGI (TK-10 renal) was > 10 µM and the TGI (DU-145 prostate) was > 10 µM. For the same compound, the TGI (NCI-H460 lung) was > 10 µM.
